# Laboratory results reported in patent US20050043378A1, “LTA4H modulators” (priority 2003, published 2005).
# Counter-ions that a name gives are not always drawn.
# Biological target: T1, recombinant human LTA4 hydrolase (rhLTA4H) (Homo sapiens, UniProt P09960)
# T1 construct: made in house; host or cells: Spodoptera frugiperda (Sf-9) cells, baculovirus (pFastBac1)
# T1 sequence (P09960 1-611): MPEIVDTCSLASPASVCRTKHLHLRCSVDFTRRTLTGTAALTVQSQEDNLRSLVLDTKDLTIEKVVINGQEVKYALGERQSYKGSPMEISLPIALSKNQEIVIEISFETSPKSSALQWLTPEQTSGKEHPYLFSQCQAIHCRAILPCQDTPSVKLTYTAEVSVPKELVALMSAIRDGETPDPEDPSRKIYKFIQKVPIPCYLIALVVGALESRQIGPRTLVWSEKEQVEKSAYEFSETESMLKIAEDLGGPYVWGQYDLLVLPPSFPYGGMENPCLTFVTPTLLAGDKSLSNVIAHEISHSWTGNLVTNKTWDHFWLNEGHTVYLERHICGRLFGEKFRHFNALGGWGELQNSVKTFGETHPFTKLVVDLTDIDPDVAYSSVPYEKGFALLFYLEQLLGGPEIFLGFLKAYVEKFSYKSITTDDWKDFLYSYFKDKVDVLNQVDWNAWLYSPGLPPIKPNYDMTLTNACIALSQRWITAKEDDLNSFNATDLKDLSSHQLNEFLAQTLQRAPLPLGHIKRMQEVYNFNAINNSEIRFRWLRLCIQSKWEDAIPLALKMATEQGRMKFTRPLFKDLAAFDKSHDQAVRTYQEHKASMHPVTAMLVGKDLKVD
# Experiment: Recombinant human LTA4 hydrolase assay for LTA4 hydrolase inhibitor activity;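 note: enzyme expressed in Sf-9 insect cells, compound preincubated 10 min with enzyme, 10 min reaction at room temperature, uninhibited reaction as positive control, enzyme-free blank as negative control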
# Format: biochemical
# Conditions: LTA4 substrate, LTB4 by immunoassay, average of one to three determinations
row,Compound,IC50 [nM]
1,"CCN(CC)CCOc1ccc(Oc2nc3ccc(Cl)cc3s2)cc1 [Example 12, {2-[4-(6-Chloro-benzothiazol-2-yloxy)-phenoxy]-ethyl}-diethyl-amine]",100
2,"OC1(c2ccccc2)CCN(CCOc2ccc(Oc3nc4ccccc4[nH]3)cc2)CC1 [Example 37, 1-{2-[4-(1H-Benzoimidazol-2-yloxy)-phenoxy]-ethyl}-4-phenyl-piperidin-4-ol]",10
3,"OC1(c2ccc(Cl)cc2)CCN(CCOc2ccc(Oc3nc4ccccc4o3)cc2)CC1 [Example 59, 1-{2-[4-(Benzooxazol-2-yloxy)-phenoxy]-ethyl}-4-(4-chloro-phenyl)-piperidin-4-ol]",5
4,"c1ccc2sc(Oc3ccc(OCCN4CCC(N5CCCCC5)CC4)cc3)nc2c1 [Example 80, 1′-{2-[4-(Benzothiazol-2-yloxy)-phenoxy]-ethyl}-[1,4′]bipiperidine]",23
5,"O=C(Cc1ccccc1)NC1CCN(CCc2ccc(Oc3nc4ccccc4s3)cc2)CC1 [Example 110, N-(1-{2-[4-(Benzothiazol-2-yloxy)-phenyl]-ethyl}-piperidin-4-yl)-2-phenyl-acetamide]",40
6,"OC(COc1ccc(Oc2nc3ccccc3o2)cc1)CN1CCCC1 (stereo not drawn) [Example 135, 1-[4-(Benzooxazol-2-yloxy)-phenoxy]-3-pyrrolidin-1-yl-propan-2-ol]",92
7,"c1ccc(Cn2nnnc2C2CCN(CCOc3ccc(Oc4nc5ccccc5s4)cc3)CC2)cc1 [Example 143, 2-(4-{2-[4-(1-Benzyl-1H-tetrazol-5-yl)-piperidin-1-yl]-ethoxy}-phenoxy)-benzothiazole]",64
8,"c1ccc2sc(Oc3ccc(CCN4CCN(CCN5CCOCC5)CC4)cc3)nc2c1 [Example 146, 2-(4-{2-[4-(2-Morpholin-4-yl-ethyl)-piperazin-1-yl]-ethyl}-phenoxy)-benzothiazole]",43
9,"NC(=O)C1CCN(CCOc2ccc(Cc3nc4ccccc4s3)cc2)CC1 [Example 147, 1-[2-(4-Benzothiazol-2-ylmethyl-phenoxy)-ethyl]-piperidine-4-carboxylic acid amide]",33
10,"Oc1ccc(N2CCN(CCOc3ccc(Oc4nc5ccccc5s4)cc3)CC2)cc1 [Example 167, 4-(4-{2-[4-(Benzothiazol-2-yloxy)-phenoxy]-ethyl}-piperazin-1-yl)-phenol]",37
11,"O=S(=O)(c1ccc(Cl)cc1)N(C1CC1)C1CCN(CCOc2ccc(Oc3nc4ccccc4s3)cc2)CC1 [Example 168, N-(1-{2-[4-(Benzothiazol-2-yloxy)-phenoxy]-ethyl}-piperidin-4-yl)-4-chloro-N-cyclopropyl-benzene sulfonamide]",27
12,"O=C(O)[C@@H]1CCCN(CCc2ccc(Oc3nc4ccccc4s3)cc2)C1 [Example 183, (R)-1-{2-[4-(Benzothiazol-2-yloxy)-phenyl]-ethyl}-piperidine-3-carboxylic acid]",18
13,"O=C(C1CCN(CCOc2ccc(Oc3nc4ccccc4s3)cc2)CC1)N1CCN(CCO)CC1 [Example 195, (1-{2-[4-(Benzothiazol-2-yloxy)-phenoxy]-ethyl}-piperidin-4-yl)-[4-(2-hydroxy-ethyl)-piperazin-1-yl]-methanone]",58
14,"NC(=O)CCN(CCc1ccc(Oc2nc3ccccc3s2)cc1)C1CC1 [Example 214, 3-({2-[4-(Benzothiazol-2-yloxy)-phenyl]-ethyl}-cyclopropyl-amino)-propionamide]",18
15,"O=C(O)[C@@H]1CCCC[C@H]1NCCc1ccc(Oc2nc3ccccc3s2)cc1 [Example 225, (1 R,2R)-2-{2-[4-(Benzothiazol-2-yloxy)-phenyl]-ethylamino}-cyclohexanecarboxylic acid]",25
16,"c1ccc2[nH]c(Oc3ccc(CCN4CCCCC4)cc3)nc2c1 [Example 230, 2-[4-(2-Piperidin-1-yl-ethyl)-phenoxy]-1H-benzoimidazole]",36
17,"O=C1CCCN1C1CCN(CCOc2ccc(Oc3nc4ccccc4[nH]3)cc2)CC1 [Example 231, 1-(1-{2-[4-(1H-Benzoimidazol-2-yloxy)-phenoxy]-ethyl}-piperidin-4-yl)-pyrrolidin-2-one]",18
18,"OCC1CCCN(CCOc2ccc(Oc3nc4ccccc4s3)cc2)C1 (stereo not drawn) [Example 265, (1-{2-[4-(Benzothiazol-2-yloxy)-phenoxy]-ethyl}-piperidin-3-yl)-methanol]",112
19,"NC1CCC1C(=O)NCC1CCN(Cc2ccc(Oc3nc4ccccc4s3)cc2)CC1 (stereo not drawn) [Example 285, 2-Amino-cyclobutanecarboxylic acid {1-[4-(benzothiazol-2-yloxy)-benzyl]-piperidin-4-ylmethyl}-amide dihydrochloride]",76

# Next, values leading:
row,IC50 [nM],Compound
1,4,"O=C1NCCC12CCN(CCOc1ccc(Oc3nc4ccccc4s3)cc1)CC2 [Example 25, 8-{2-[4-(Benzothiazol-2-yloxy)-phenoxy]-ethyl}-2,8-diaza-spiro[4.5]decan-1-one]"
2,17,"NC(=O)C1CCCN(CCc2ccc(Oc3nc4ccccc4s3)cc2)C1 (stereo not drawn) [Example 31, 1-{2-[4-(Benzothiazol-2-yloxy)-phenyl]-ethyl}-piperidine-3-carboxylic acid amide]"
3,14,"OC1CCN(CCCc2ccc(Oc3nc4ccccc4o3)cc2)CC1 [Example 36, 1-{3-[4-(Benzooxazol-2-yloxy)-phenyl]-propyl}-piperidin-4-ol]"
4,15,"CN(C)CCCOc1ccc(Oc2nc3ccccc3o2)cc1 [Example 45, {3-[4-(Benzooxazol-2-yloxy)-phenoxy]-propyl}-dimethyl-amine]"
5,10,"c1ccc2oc(Oc3ccc(OCCN4CCC4)cc3)nc2c1 [Example 77, 2-[4-(2-Azetidin-1-yl-ethoxy)-phenoxy]-benzooxazole]"
6,3,"O=C(Cc1ccccc1)NC1CCN(CCOc2ccc(Oc3nc4ccccc4o3)cc2)CC1 [Example 78, N-(1-{2-[4-(Benzooxazol-2-yloxy)-phenoxy]-ethyl}-piperidin-4-yl)-2-phenyl-acetamide]"
7,1,"CCCN(CCc1ccc(Oc2nc3ccccc3o2)cc1)CC1CC1 [Example 92, {2-[4-(Benzooxazol-2-yloxy)-phenyl]-ethyl}-cyclopropylmethyl-propyl-amine]"
8,4,"CCN(CCc1ccc(Oc2nc3ccccc3[nH]2)cc1)C1CCCCC1 [Example 123, {2-[4-(1H-Benzoimidazol-2-yloxy)-phenyl]-ethyl}-cyclohexyl-ethyl-amine]"
9,8,"O=C(CN1CCN(CCOc2ccc(Oc3nc4ccccc4s3)cc2)CC1)N1CCCC1 [Example 153, 2-(4-{2-[4-(Benzothiazol-2-yloxy)-phenoxy]-ethyl}-piperazin-1-yl)-1-pyrrolidin-1-yl-ethanone]"
10,1,"O=C(O)CC1CCCN(CCc2ccc(Oc3nc4ccccc4s3)cc2)C1 (stereo not drawn) [Example 157, (1-{2-[4-(Benzothiazol-2-yloxy)-phenyl]-ethyl}-piperidin-3-yl)-acetic acid]"
11,9,"O=C(O)CN1CCN(CCOc2ccc(Oc3nc4ccccc4s3)cc2)CC1 [Example 163, (4-{2-[4-(Benzothiazol-2-yloxy)-phenoxy]-ethyl}-piperazin-1-yl)-acetic acid]"
12,12,"CC(C)(C)OC(=O)N1CCC(c2nnnn2CCOc2ccc(Oc3nc4ccccc4s3)cc2)CC1 [Example 176, 4-(1-{2-[4-(Benzothiazol-2-yloxy)-phenoxy]-ethyl}-1H-tetrazol-5-yl)-piperidine-1-carboxylic acid tert-butyl ester]"
13,3,"O=C(O)CCN(CCc1ccc(Oc2nc3ccccc3s2)cc1)Cc1ccccc1 [Example 192, 3-({2-[4-(Benzothiazol-2-yloxy)-phenyl]-ethyl}-benzyl-amino)-propionic acid]"
14,4,"O=C(O)CCC1CCN(CCc2ccc(Oc3nc4ccccc4s3)cc2)CC1 [Example 202, 3-(1-{2-[4-(Benzothiazol-2-yloxy)-phenyl]-ethyl}-piperidin-4-yl)-propionic acid]"
15,9,"O=C(O)C1CC1CN(CCc1ccc(Oc2nc3ccccc3s2)cc1)C1CC1 (stereo not drawn) [Example 211, 2-[({2-[4-(Benzothiazol-2-yloxy)-phenyl]-ethyl}-cyclopropyl-amino)-methyl]-cyclopropanecarboxylic acid]"
16,14,"c1ccc2sc(Oc3ccc(OCCn4cnnn4)cc3)nc2c1 [Example 224, 2-[4-(2-Tetrazol-1-yl-ethoxy)-phenoxy]-benzothiazole]"
17,1,"CN(C1CCN(Cc2ccc(Oc3nc4ccccc4s3)cc2)CC1)S(C)(=O)=O [Example 255, N-{1-[4-(Benzothiazol-2-yloxy)-benzyl]-piperidin-4-yl}-N-methyl-methanesulfonamide]"
18,4,"c1ccc2sc(Oc3ccc(CCN4CCC(c5nnn[nH]5)CC4)cc3)nc2c1 [Example 262, 2-(4-{2-[4-(1H-Tetrazol-5-yl)-piperidin-1-yl]-ethyl}-phenoxy)-benzothiazole]"
19,16,"c1ccc2sc(Oc3ccc(OCCN4CCC(c5nnn[nH]5)CC4)cc3)nc2c1 [Example 270, 2-(4-{2-[4-(1H-Tetrazol-5-yl)-piperidin-1-yl]-ethoxy}-phenoxy)-benzothiazole]"
20,2,"c1ccc2oc(Oc3ccc(CN4CCCCC4)cc3)nc2c1 [Example 271, 2-(4-Piperidin-1-ylmethyl-phenoxy)-benzooxazole]"
